Laboratory results taken from PubChem BioAssay AID248 (DTP/NCI, 2004).
Where “and” joins values, the source holds several entries; their conditions need not be identical. Equal values may be shown once. Inconclusive results and toxic doses are left out. Cut-off read from the data, not from the text of the source: active = T/C of 150% or more; inactive = T/C below 125%.

Test system: L1210 leukemia ip in BDF1 mice, survival T/C
Assay: NCI In Vivo Anticancer Drug Screen. Data for tumor model L1210 Leukemia (intraperitoneal) in B6D2F1 (BDF1) mice
Conditions: endpoint: mean survival time, higher = longer survival
How it was run: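 Transplanted-tumor mice were given test agent; controls received vehicle only. Survival readings from the two groups were divided (treated over control).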

[1] = dose: 50.0 mg/kg/injection, schedule: Q01DX001 (ip), vehicle: carboxymethylcellulose (CMC)
[2] = dose: 100.0 mg/kg/injection, schedule: Q01DX001 (ip), vehicle: carboxymethylcellulose (CMC)
[3] = dose: 100.0 mg/kg/injection, schedule: Q04DX003 (ip), vehicle: Klucel (hydroxypropylcellulose) (HPC)
[4] = dose: 200.0 mg/kg/injection, schedule: Q01DX001 (ip), vehicle: carboxymethylcellulose (CMC)
[5] = dose: 200.0 mg/kg/injection, schedule: Q04DX003 (ip), vehicle: Klucel (hydroxypropylcellulose) (HPC)
[6] = dose: 400.0 mg/kg/injection, schedule: Q04DX003 (ip), vehicle: Klucel (hydroxypropylcellulose) (HPC)
[7] = dose: 100.0 mg/kg/injection, schedule: Q01DX001 (ip), vehicle: saline
[8] = dose: 200.0 mg/kg/injection, schedule: Q01DX001 (ip), vehicle: saline
[9] = dose: 400.0 mg/kg/injection, schedule: Q01DX001 (ip), vehicle: saline
[10] = dose: 100.0 mg/kg/injection, schedule: Q04DX003 (ip), vehicle: saline with Tween-80
[11] = dose: 400.0 mg/kg/injection, schedule: Q04DX003 (ip), vehicle: saline with Tween-80
[12] = dose: 100.0 mg/kg/injection, schedule: Q04DX003 (ip), vehicle: saline
[13] = dose: 200.0 mg/kg/injection, schedule: Q04DX003 (ip), vehicle: saline
[14] = dose: 400.0 mg/kg/injection, schedule: Q04DX003 (ip), vehicle: saline
[15] = dose: 50.0 mg/kg/injection, schedule: Q01DX001 (ip), vehicle: saline
[16] = dose: 50.0 mg/kg/injection, schedule: Q01DX009 (ip), vehicle: saline with Tween-80
[17] = dose: 100.0 mg/kg/injection, schedule: Q01DX009 (ip), vehicle: saline with Tween-80
[18] = dose: 100.0 mg/kg/injection, schedule: Q04DX003 (ip), vehicle: acetone
[19] = dose: 200.0 mg/kg/injection, schedule: Q04DX003 (ip), vehicle: acetone
[20] = dose: 400.0 mg/kg/injection, schedule: Q04DX003 (ip), vehicle: acetone

Measured: T/C

NC(CSCc1ccccc1)C(=O)O (stereo not given)
inactive: dose: 7.0 mg/kg/injection, schedule: Q01DX015 (ip), vehicle: saline 97 % of control | dose: 15.0 mg/kg/injection, schedule: Q01DX015 (ip), vehicle: saline 97 % of control | dose: 29.0 mg/kg/injection, schedule: Q01DX015 (ip), vehicle: saline 101 % of control | [1] 89 % of control | dose: 58.0 mg/kg/injection, schedule: Q01DX015 (ip), vehicle: saline 97 % of control | [2] 101 % of control | [3] 100 % of control | dose: 117.0 mg/kg/injection, schedule: Q01DX015 (ip), vehicle: saline 97 % of control | [4] 89 % of control | [5] 94 % of control | dose: 233.0 mg/kg/injection, schedule: Q01DX015 (ip), vehicle: saline 95 % of control | [6] 96 % of control

COc1ccc(-c2sc(C)c(-c3ccc(OC)cc3)c2C)cc1
inactive: [7] 96 % of control | [8] 96 % of control | [9] 94 % of control

Oc1ccc(Nc2ccnc3cc(Cl)ccc23)cc1CN(CCCl)CCCl
inactive: dose: 5.0 mg/kg/injection, schedule: Q01DX001 (ip), vehicle: saline 109 % of control | dose: 10.0 mg/kg/injection, schedule: Q01DX001 (ip), vehicle: saline 109 % of control

Cc1nc(N)nc(N)c1Oc1ccc(Cl)cc1
inactive: dose: 30.0 mg/kg/injection, schedule: Q01DX Z (ip), vehicle: saline 96 % of control | dose: 60.0 mg/kg/injection, schedule: Q01DX Z (ip), vehicle: saline 98 % of control | dose: 120.0 mg/kg/injection, schedule: Q01DX Z (ip), vehicle: saline 102 % of control

CN=C1N[N+]2=CCCCC2S1 (stereo not given)
inactive: dose: 25.0 mg/kg/injection, schedule: Q04DX002 (ip), vehicle: saline 86 % of control | dose: 40.0 mg/kg/injection, schedule: Q01DX009 (ip), vehicle: saline 95 % of control | dose: 50.0 mg/kg/injection, schedule: Q04DX002 (ip), vehicle: saline 111 % of control | dose: 60.0 mg/kg/injection, schedule: Q01DX009 (ip), vehicle: saline 104 % of control | dose: 80.0 mg/kg/injection, schedule: Q01DX009 (ip), vehicle: saline 107 % of control | dose: 100.0 mg/kg/injection, schedule: Q04DX002 (ip), vehicle: saline 99 % of control

O=C(c1ccc(Cl)cc1)C(C(c1ccc([N+](=O)[O-])cc1)N1CCCCC1)N1CCCCC1 (stereo not given)
inactive: dose: 12.5 mg/kg/injection, schedule: Q01DX001 (ip), vehicle: Klucel (hydroxypropylcellulose) (HPC) 98 % of control | dose: 12.5 mg/kg/injection, schedule: Q01DX009 (ip), vehicle: Klucel (hydroxypropylcellulose) (HPC) 102 % of control | dose: 25.0 mg/kg/injection, schedule: Q01DX001 (ip), vehicle: Klucel (hydroxypropylcellulose) (HPC) 104 % of control | dose: 25.0 mg/kg/injection, schedule: Q01DX009 (ip), vehicle: Klucel (hydroxypropylcellulose) (HPC) 98 % of control | dose: 50.0 mg/kg/injection, schedule: Q01DX001 (ip), vehicle: Klucel (hydroxypropylcellulose) (HPC) 102 % of control | dose: 50.0 mg/kg/injection, schedule: Q01DX009 (ip), vehicle: Klucel (hydroxypropylcellulose) (HPC) 101 % of control | dose: 400.0 mg/kg/injection, schedule: Q01DX001 (ip), vehicle: Klucel (hydroxypropylcellulose) (HPC) 92 % of control

CN(C)Cc1cc(Cl)ccc1O
inactive: dose: 100.0 mg/kg/injection, schedule: Q04DX002 (ip), vehicle: Klucel (hydroxypropylcellulose) (HPC) 100 % of control

O=C1/C(=C/c2ccccc2)CCC2CCCCC12 (stereo not given)
inactive: [10] 94 % of control | dose: 200.0 mg/kg/injection, schedule: Q04DX003 (ip), vehicle: saline with Tween-80 100 % of control | [11] 94 % of control

CCCCCC(C)NCC(C)(C)O (stereo not given)
inactive: dose: 75.0 mg/kg/injection, schedule: Q01DX001 (ip), vehicle: acid diluted with saline 102 % of control

COC1=C(NCc2ccco2)C(=O)C(OC)=C(NCc2ccco2)C1=O
inactive: [1] 96 % of control | [2] 91 % of control | [4] 86 % of control | dose: 400.0 mg/kg/injection, schedule: Q01DX001 (ip), vehicle: carboxymethylcellulose (CMC) 96 % of control

OC1OC(CF)C(O)C(O)C1O (stereo not given)
inactive: [12] 104 % of control | [13] 115 % of control | [14] 118 % of control

CCCCC(/C=C/c1ccc2ccccc2n1)CC (stereo not given)
inactive: [15] 103 % of control | [7] 113 % of control

Cc1c(Cl)cccc1NC(=O)Oc1ccc(Cl)cc1Cl
inactive: [16] 94 % of control | [17] 103 % of control | dose: 200.0 mg/kg/injection, schedule: Q01DX009 (ip), vehicle: saline with Tween-80 106 % of control

O=C(CCCC(O)(C1CC1)C1CC1)C1CC1
inactive: dose: 100.0 mg/kg/injection, schedule: Q01DX009 (ip), vehicle: acetone 106 % of control | [18] 112 % of control | dose: 200.0 mg/kg/injection, schedule: Q01DX009 (ip), vehicle: acetone 106 % of control | [19] 101 % of control | dose: 400.0 mg/kg/injection, schedule: Q01DX009 (ip), vehicle: acetone 109 % of control | [20] 101 % of control

CC(O)(c1ccc(Cl)cc1)C(c1ccccc1)c1ccccn1 (stereo not given)
inactive: dose: 50.0 mg/kg/injection, schedule: Q01DX009 (ip), vehicle: water 103 % of control | dose: 100.0 mg/kg/injection, schedule: Q01DX009 (ip), vehicle: water 95 % of control | dose: 100.0 mg/kg/injection, schedule: Q04DX003 (ip), vehicle: water 116 % of control | dose: 200.0 mg/kg/injection, schedule: Q01DX009 (ip), vehicle: water 96 % of control | dose: 200.0 mg/kg/injection, schedule: Q04DX003 (ip), vehicle: water 119 % of control | dose: 400.0 mg/kg/injection, schedule: Q01DX009 (ip), vehicle: water 97 % of control | dose: 400.0 mg/kg/injection, schedule: Q04DX003 (ip), vehicle: water 104 % of control

O=C(O)C1CC(c2ccc(Cl)cc2)OC1=O (stereo not given)
inactive: [12] 101 % of control | [13] 104 % of control | [14] 101 % of control

FC(F)(F)c1cccc(P(c2cccc(C(F)(F)F)c2)c2ccccc2C(F)(F)F)c1
inactive: [10] 95 % of control | [11] 87 % of control

O=S(=O)(C/C=C/CC(Cl)(Cl)Cl)C/C=C/CC(Cl)(Cl)Cl
inactive: dose: 100.0 mg/kg/injection, schedule: Q01DX001 (ip), vehicle: acetone 95 % of control | dose: 100.0 mg/kg/injection, schedule: Q01DX009 (ip), vehicle: saline 90 % of control | [18] 97 % of control | dose: 200.0 mg/kg/injection, schedule: Q01DX001 (ip), vehicle: acetone 94 % of control | dose: 200.0 mg/kg/injection, schedule: Q01DX009 (ip), vehicle: saline 93 % of control | [19] 95 % of control | dose: 400.0 mg/kg/injection, schedule: Q01DX001 (ip), vehicle: acetone 89 % of control | dose: 400.0 mg/kg/injection, schedule: Q01DX009 (ip), vehicle: saline 92 % of control | [20] 95 % of control

Cc1cccc(C)c1C(Cl)CS(=O)(=O)c1ccccc1 (stereo not given)
inactive: [3] 102 % of control | [5] 107 % of control | [6] 107 % of control

CC(C)(C)c1ccc(SC(=O)Nc2cc([N+](=O)[O-])ccc2Cl)cc1
inactive: dose: 25.0 mg/kg/injection, schedule: Q01DX009 (ip), vehicle: saline with Tween-80 90 % of control | [16] 101 % of control | [17] 100 % of control and 92 % of control

CNS(=O)(=O)c1cc(C)ccc1C
inactive: dose: 100.0 mg/kg/injection, schedule: Q01DX009 (ip), vehicle: Klucel (hydroxypropylcellulose) (HPC) 94 % of control | dose: 200.0 mg/kg/injection, schedule: Q01DX009 (ip), vehicle: Klucel (hydroxypropylcellulose) (HPC) 95 % of control | dose: 400.0 mg/kg/injection, schedule: Q01DX009 (ip), vehicle: Klucel (hydroxypropylcellulose) (HPC) 100 % of control

CC(=O)N(c1ccccc1)C(C(=O)c1ccccc1)c1ccccc1 (stereo not given)
inactive: [15] 98 % of control | [7] 102 % of control | [8] 108 % of control | [9] 98 % of control
